Like-named read-outs stand apart in the source and are kept apart here.
Columns and labels:
[1] = system: Influenza A/H3N2 (strain X-31); assay: microbe, parasite or virus in culture; assay type: cell-based; settings: H3N2, MDCK, in Homo sapiens, 72 h
in vitro = settings: dog
[2] = system: Influenza A/H3N2 (strain A/HK/7/87); assay: microbe, parasite or virus in culture; assay type: cell-based; settings: H3N2, MDCK, in Homo sapiens, 72 h
MDCK cells = settings: minimal changes in cell morphology by microscopy
influenza virus = assay type: cell-based, human influenza virus; settings: Ratio of MCC to average EC50, MDCK cells
[3] = system: Human embryonic lung (HEL) fibroblasts
[4] = system: African green monkey kidney (Vero) cells
[5] = system: human cervix epithelial (HeLa) cells
[6] = read-out: Antiviral EC50, Influenza A/H3N2 (strain X-31), CPE
[7] = read-out: Antiviral EC50, Influenza A/H3N2 (strain X-31), MTS
[8] = read-out: Antiviral EC50, Influenza A/H3N2 (strain A/HK/7/87), CPE
[9] = read-out: Antiviral EC50, Influenza A/H3N2 (strain A/HK/7/87), MTS

Row | SMILES | EC50 [1, 6] | EC50 [1, 7] | CC50 (in vitro) | EC50 [2, 8] | EC50 [2, 9] | Cytotoxicity MCC (minimum cytotoxic concentration) (MDCK cells) | Selectivity index (influenza virus) | Cytotoxic concentration MCC, HEL [3] | Cytotoxic concentration MCC, Vero [4] | Cytotoxic concentration MCC, HeLa [5]
1 | CCC(CC)O[C@@H]1C=C(C(=O)O)C[C@H](N)[C@H]1NC(C)=O [Oseltamivir carboxylate] | 0.027 ± 0.013 µM | 0.064 ± 0.078 µM | > 100 µM | 0.26 ± 0.3 µM | 0.23 ± 0.23 µM | >100 µM | – | – | – | –
2 | NC12CC3CC(CC(C3)C1)C2 [Amantadine] | 54 ± 33 µM | 45 ± 21 µM | > 100 µM | 3.9 ± 4.1 µM | 3.2 ± 4 µM | >100 µM | – | – | – | –
3 | NC(=O)c1ncn([C@@H]2O[C@H](CO)[C@@H](O)[C@H]2O)n1 [Ribavirin] | 9 ± 0.04 µM | 9.6 ± 2.2 µM | – | 8 ± 2.2 µM | 7.6 ± 3 µM | ≥100 µM | – | – | – | –
4 | COC(=O)[C@H]1NC(=O)[C@H]2NC(=O)[C@H](NC(=O)[C@@H]3NC(=O)[C@H]4NC(=O)[C@H](NC(=O)[C@H](N)c5ccc(O)c(c5)Oc5cc4cc(O)c5C)[C@H](O)c4ccc(cc4)Oc4cc3cc(c4O)Oc3ccc(cc3)[C@H]2O)c2ccc(O)c(c2)-c2c(O)cc(O)cc21 [Compound 2, aglycoristocetin] | 8.4 ± 2.4 µM | 10.7 ± 2.5 µM | 44 ± 10 µM | 4.3 ± 2.9 µM | 3.2 ± 1.6 µM | 100 µM | 15 | ≥100 µM | 100 µM | ≥100 µM
